Values joined by “and” are separate entries in the source; they are usually repeats but may differ in a detail not shown here. Equal values may be shown once.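 Step 1: Grow cells in 96-well plates. Step 2: Expose to compound for 48 hours at 5 concentrations. Step 3: Interpolate endpoints linearly; if unreached, use highest concentration. Here, GI50 denotes the concentration required for 50% inhibition of growth. TGI denotes the concentration required for complete inhibition of growth.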

Experimental findings from PubChem BioAssay (NCI) are described below.

Test systems include MOLT-4 leukemia; NCI-H226 lung; CCRF-CEM leukemia; SNB-75 CNS; UO-31 renal; NCI-H460 lung; K-562 leukemia; OVCAR-8 ovarian; DU-145 prostate; KM12 colon.
What all share (test): inhibition of tumour cell growth, NCI panel, 48 h

For `Clc1cccc(N2CCN(CCN3CCc4c([nH]c5ccccc45)C3c3cccnc3)CC2)c1` (stereo unspecified), the TGI with MOLT-4 leukemia is over 100 µM; with NCI-H226 lung, over 62.4 µM; with CCRF-CEM leukemia, over 100 µM; in the assay on SNB-75 CNS it was over 76.4 µM; with UO-31 renal, over 100 µM; in the assay with NCI-H460 lung, over 100 µM. For the same compound, the TGI with K-562 leukemia is over 65.4 µM; with OVCAR-8 ovarian it was over 100 µM; with DU-145 prostate, over 31.6 µM; with KM12 colon, over 100 µM.

`Cc1cc(Oc2cnc(=O)[nH]c2)cs1`: the TGI with MOLT-4 leukemia, in the assay with NCI-H226 lung, with CCRF-CEM leukemia, in the assay with SNB-75 CNS, in the assay with UO-31 renal and with NCI-H460 lung was over 100 µM throughout. Further, the TGI in the assay with K-562 leukemia, in the assay with OVCAR-8 ovarian, with DU-145 prostate and with KM12 colon was over 100 µM throughout.

For `CN1CCC(C(=O)Nc2n[nH]c3nc(-c4ccc(O)cc4)c(Br)cc23)CC1`, the GI50 in the assay with MOLT-4 leukemia is 1.88 µM and 1.51 µM; with NCI-H226 lung, 0.674 µM and 1.06 µM; in the assay on CCRF-CEM leukemia, 0.835 µM and 0.996 µM; in the assay on SNB-75 CNS, 0.207 µM and 0.537 µM; in the assay on UO-31 renal, 6.85 µM and 7.86 µM; with NCI-H460 lung, 1.97 µM and 1.1 µM. The GI50 was 1.04 µM and 0.404 µM in the assay with K-562 leukemia; 0.965 µM and 1.77 µM with OVCAR-8 ovarian; 1.69 µM and 1.18 µM with DU-145 prostate; 1.82 µM and 1.49 µM in the assay with KM12 colon. Besides, the TGI was > 25 µM and 18.9 µM in the assay with MOLT-4 leukemia; 8.55 µM and > 15.5 µM with NCI-H226 lung; over 25 µM in the assay on CCRF-CEM leukemia; 8.38 µM and 7.52 µM in the assay on SNB-75 CNS; over 22.4 µM with UO-31 renal; over 25 µM in the assay on NCI-H460 lung. Moreover, the TGI with K-562 leukemia is over 25 µM; in the assay with OVCAR-8 ovarian it was over 20.2 µM; with DU-145 prostate it was over 25 µM; with KM12 colon, over 25 µM.

Turning to `OC(C1CO1)C(O)C1CO1` (stereo unspecified), the GI50 in the assay on MOLT-4 leukemia was 1.95 µM; in the assay with NCI-H226 lung, 47.7 µM and 122 µM; in the assay on CCRF-CEM leukemia, 1.53 µM; in the assay on SNB-75 CNS, 32.2 µM; in the assay on UO-31 renal, 37 µM; in the assay on NCI-H460 lung it was 2.14 µM. The GI50 is 62.5 µM in the assay with K-562 leukemia and 6.7 µM in the assay on DU-145 prostate. Further, the TGI in the assay with MOLT-4 leukemia was 103 µM and 239 µM; in the assay on NCI-H226 lung it was 136 µM and 412 µM; in the assay on CCRF-CEM leukemia, 120 µM and 392 µM; in the assay on SNB-75 CNS, 116 µM and 166 µM; in the assay with UO-31 renal it was 112 µM and 199 µM; with NCI-H460 lung it was 53.5 µM and 140 µM. Further, the TGI in the assay on K-562 leukemia is 150 µM; in the assay with OVCAR-8 ovarian it was 115 µM and 453 µM; in the assay on DU-145 prostate it was 109 µM and 154 µM; in the assay with KM12 colon it was 112 µM and 254 µM.

For the compound `CC1(C)CCC[C@]2(C)c3cc(O)ccc3CC[C@@H]12`, the GI50 in the assay with MOLT-4 leukemia is 11.7 µM; in the assay with NCI-H226 lung it was 18.2 µM; in the assay on SNB-75 CNS it was 12.4 µM; with UO-31 renal, 19.9 µM; in the assay on NCI-H460 lung it was 18.6 µM; in the assay with K-562 leukemia, 10.9 µM. The GI50 in the assay with OVCAR-8 ovarian was 21.7 µM; in the assay with DU-145 prostate, 16.4 µM; in the assay on KM12 colon, 14.1 µM. Besides, the TGI in the assay on MOLT-4 leukemia was determined as 67.3 µM; in the assay on NCI-H226 lung, 35.4 µM; in the assay with SNB-75 CNS, 27.5 µM; with UO-31 renal it was 40.2 µM; in the assay with NCI-H460 lung, 40.9 µM; with K-562 leukemia, 29.5 µM. Further, the TGI in the assay on OVCAR-8 ovarian came out at 41.1 µM; in the assay on DU-145 prostate, 30.6 µM; with KM12 colon it was 31.2 µM.

`COc1ccc2c(c1)c1nc3cc(C)c(C)cc3nc1n2CCN(C)C`: the GI50 with MOLT-4 leukemia was 0.42 µM; in the assay with NCI-H226 lung it was 1.01 µM; with CCRF-CEM leukemia, 0.797 µM; in the assay with SNB-75 CNS, 1.29 µM; in the assay on UO-31 renal, 0.541 µM; with NCI-H460 lung it was 0.369 µM. For the same compound, the results for the GI50 with K-562 leukemia, in the assay with DU-145 prostate and with KM12 colon were 0.431 µM, 1.06 µM and 0.827 µM, respectively. Also, the TGI was determined as 4.94 µM with MOLT-4 leukemia; 2.97 µM with NCI-H226 lung; 3.67 µM in the assay on CCRF-CEM leukemia; 4.14 µM in the assay with SNB-75 CNS; 2.1 µM in the assay with UO-31 renal; 1.39 µM in the assay with NCI-H460 lung. Further, the TGI in the assay with K-562 leukemia worked out at 2.43 µM; with DU-145 prostate, 2.37 µM; with KM12 colon it was 2.37 µM.

Turning to `N#C/C(=C\Nc1ccccn1)C(=O)c1ccco1`, the TGI with MOLT-4 leukemia, in the assay with NCI-H226 lung, in the assay on SNB-75 CNS, in the assay on UO-31 renal, in the assay with NCI-H460 lung and in the assay with K-562 leukemia was over 100 µM in each case. The TGI in the assay on OVCAR-8 ovarian, with DU-145 prostate and in the assay with KM12 colon was over 100 µM throughout.

For the compound `Cc1ccc(C(=O)/C(=C\c2ccc([N+](=O)[O-])cc2)S(=O)Cc2ccc(F)cc2)cc1` (stereo unspecified), the GI50 in the assay with MOLT-4 leukemia was 1.3 µM; with NCI-H226 lung, 3.48 µM; in the assay with CCRF-CEM leukemia it was 0.752 µM; with SNB-75 CNS it was 1.47 µM; in the assay on UO-31 renal it was 1.36 µM; in the assay on NCI-H460 lung, 1.89 µM. Also, the figures for the GI50 in the assay on OVCAR-8 ovarian, in the assay with DU-145 prostate and in the assay with KM12 colon were 1.88 µM, 1.49 µM and 2.12 µM, respectively. Also, the TGI in the assay on MOLT-4 leukemia is 5.58 µM; with NCI-H226 lung, 13.1 µM; in the assay with CCRF-CEM leukemia it was over 100 µM; in the assay on SNB-75 CNS it was 3.1 µM; in the assay on UO-31 renal, 2.69 µM; with NCI-H460 lung, 3.85 µM. In addition, the TGI with OVCAR-8 ovarian was determined as 4.08 µM; in the assay with DU-145 prostate it was 2.86 µM; with KM12 colon it was 4.78 µM.
